US20240409527A1, “INHIBITORS OF ALPHA-5 BETA-1 INTEGRIN AND USES THEREOF” (The Regents of the University of California, priority 2022, published 2024)
pIC50: −log10 of the molar value.

Target: α5β1 integrin (Homo sapiens, UniProt P05556+P08648)
Test: IC50 for the selected compounds (assay not described)

Sequence of α5β1 integrin (P08648 42-894 limits assumed): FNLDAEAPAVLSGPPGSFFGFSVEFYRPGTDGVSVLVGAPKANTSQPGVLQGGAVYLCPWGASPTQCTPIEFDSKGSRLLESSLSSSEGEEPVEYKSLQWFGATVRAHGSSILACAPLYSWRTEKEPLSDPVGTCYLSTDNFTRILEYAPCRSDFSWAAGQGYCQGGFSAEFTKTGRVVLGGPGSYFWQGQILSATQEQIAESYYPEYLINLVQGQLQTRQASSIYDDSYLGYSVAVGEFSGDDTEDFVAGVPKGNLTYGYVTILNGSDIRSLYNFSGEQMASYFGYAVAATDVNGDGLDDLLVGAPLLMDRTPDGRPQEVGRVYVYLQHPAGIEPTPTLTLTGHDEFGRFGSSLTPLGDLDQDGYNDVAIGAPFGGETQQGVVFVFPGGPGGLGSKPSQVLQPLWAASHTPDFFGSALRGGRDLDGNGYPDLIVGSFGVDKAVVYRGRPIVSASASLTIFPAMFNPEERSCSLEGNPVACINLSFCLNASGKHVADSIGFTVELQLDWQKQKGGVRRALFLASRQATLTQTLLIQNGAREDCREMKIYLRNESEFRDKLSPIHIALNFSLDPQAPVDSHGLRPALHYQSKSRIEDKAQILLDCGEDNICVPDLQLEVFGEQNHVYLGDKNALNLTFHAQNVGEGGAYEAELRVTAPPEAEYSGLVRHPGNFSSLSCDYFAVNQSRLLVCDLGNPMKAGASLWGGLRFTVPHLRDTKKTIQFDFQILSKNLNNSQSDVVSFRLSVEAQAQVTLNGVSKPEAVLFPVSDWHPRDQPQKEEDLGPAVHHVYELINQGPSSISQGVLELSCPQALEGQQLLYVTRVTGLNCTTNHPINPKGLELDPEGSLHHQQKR
Sequence of α5β1 integrin (P05556 21-798): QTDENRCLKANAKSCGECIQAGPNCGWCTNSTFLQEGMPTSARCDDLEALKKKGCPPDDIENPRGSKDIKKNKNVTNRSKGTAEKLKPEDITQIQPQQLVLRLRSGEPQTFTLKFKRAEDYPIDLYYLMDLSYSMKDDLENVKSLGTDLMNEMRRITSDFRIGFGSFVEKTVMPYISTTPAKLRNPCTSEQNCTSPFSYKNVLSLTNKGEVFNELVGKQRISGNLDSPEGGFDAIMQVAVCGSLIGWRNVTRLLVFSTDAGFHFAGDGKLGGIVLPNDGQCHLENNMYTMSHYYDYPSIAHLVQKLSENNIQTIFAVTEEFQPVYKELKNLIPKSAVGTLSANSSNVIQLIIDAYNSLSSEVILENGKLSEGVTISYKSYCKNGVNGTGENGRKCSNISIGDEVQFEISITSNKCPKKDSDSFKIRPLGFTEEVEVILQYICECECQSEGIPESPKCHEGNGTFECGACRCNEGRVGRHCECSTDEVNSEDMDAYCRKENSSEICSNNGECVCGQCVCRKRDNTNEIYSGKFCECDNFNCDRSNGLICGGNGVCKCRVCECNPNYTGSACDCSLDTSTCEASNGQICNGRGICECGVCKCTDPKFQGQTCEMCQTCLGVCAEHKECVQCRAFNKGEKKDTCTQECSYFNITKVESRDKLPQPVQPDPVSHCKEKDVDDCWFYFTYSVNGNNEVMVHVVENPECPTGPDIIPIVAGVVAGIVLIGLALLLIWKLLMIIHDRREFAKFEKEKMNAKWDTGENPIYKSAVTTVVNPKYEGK

## O=C(CNC(=O)c1c[nH]c(=O)c(NC2=NCCCN2)c1)NC[C@H](NC(=O)c1c(Cl)cc(-c2ccccc2)cc1Cl)C(=O)O [SU15210-00206-01, (S)-2-(3,5-dichlorobiphenyl-4-ylcarboxamido)-3-(2-(6-oxo-5-(1,4,5,6-tetrahydropyrimidin-2-ylamino)-1,6-dihydropyridine-3-carboxamido)acetamido)propanoic acid]
  pIC50: > 6.00

## O=C(CNC(=O)c1cncc(NC2=NCCCN2)c1)NC[C@H](NC(=O)c1c(Cl)cc(-c2ccccc2)cc1Cl)C(=O)O [SU15210-00204-01, (S)-2-(3,5-dichlorobiphenyl-4-ylcarboxamido)-3-(2-(5-(1,4,5,6-tetrahydropyrimidin-2-ylamino)nicotinamido)acetamido)propanoic acid]
  pIC50: > 6.00
